Measurements: PMC8001472, “Novel Selective IDO1 Inhibitors with Isoxazolo[5,4-d]pyrimidin-4(5H)-one Scaffold” (Pharmaceuticals, 2021)

Assays:
hIDO2 = biological target: T1, hIDO2 (Homo sapiens, UniProt Q6ZQW0); assay: hIDO2 inhibitory potency evaluation (fluorescence assay); assay type: biochemical; settings: 100 µM compound; n.a. = not active; read-out: IDO2 % of Inhibition @ 100 µM
T1 construct: purchased Vinci-Biochem
T1 sequence (Q6ZQW0 1-407): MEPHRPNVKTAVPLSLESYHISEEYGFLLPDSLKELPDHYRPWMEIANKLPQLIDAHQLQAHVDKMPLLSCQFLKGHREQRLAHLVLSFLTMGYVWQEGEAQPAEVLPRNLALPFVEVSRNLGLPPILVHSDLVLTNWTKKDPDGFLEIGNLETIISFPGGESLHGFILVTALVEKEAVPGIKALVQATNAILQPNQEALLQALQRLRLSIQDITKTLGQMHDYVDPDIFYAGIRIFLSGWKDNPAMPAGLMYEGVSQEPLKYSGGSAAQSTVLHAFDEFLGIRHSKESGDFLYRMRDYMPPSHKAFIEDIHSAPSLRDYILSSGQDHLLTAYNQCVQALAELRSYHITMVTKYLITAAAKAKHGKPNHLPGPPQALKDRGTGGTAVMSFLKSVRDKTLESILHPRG
Description: (§1) Additionally, to determine IDO1 selectivity, all final compounds were assayed for their inhibitory potencies towards hIDO2 and hTDO. For this purpose, two new protocols were developed based on the published fluorescence assay for hIDO1 [25]. Sodium ascorbate, methylene blue, and bovine catalase were used in the same concentrations as for hIDO1. 50 mM phosphate buffers with pH values of 7.5 and 7.0 were used for hIDO2 and hTDO, respectively, as has been already mentioned before. First, the activities of hIDO2 and hTDO were determined at four different concentrations. […] Additionally, the effect of DMSO concentration on enzyme activity was investigated. […] The optimal hIDO2 and hTDO assay concentrations of the substrate L-Trp were determined to be 4 mM and 500 μM, respectively.
Activity of the compounds on hIDO2 was determined according to the previously reported fluorescence protocol for hIDO1 [25] and reported absorbance protocols for hIDO2 [30, 36] with several modifications. Recombinant hIDO2 was purchased from Vinci-Biochem (Vinci-Biochem, Srl, Vinci, Italy), bovine catalase was purchased from Sigma-Aldrich (Sigma-Aldrich, St. Louis, MO, USA). Prior to the measurement of activity for compounds, the enzyme activity was determined and optimal assay enzyme concentration was selected. The amounts of reagents needed to perform the assay were optimized. Briefly, the reagents needed were dissolved in 50 mM potassium phosphate buffer (pH 7.5, 0.01%, v/v Tween 20), the reaction was performed in black 384-well microplates. After the addition of 1 μL of 100 mM sodium ascorbate neutralized with an equimolar amount of 1M NaOH, 1 μL of 100 μM methylene blue, 1 μL of 1 mg/mL bovine catalase, 0.5 μL of DMSO (negative control) or solution of a compound in DMSO, 5 μL of […] hIDO2 and 1.5 μL of 26.7 mM L-Trp were added and the microplate was incubated for 60 min at 37 °C. The reaction was quenched with the addition of 10 μL of 400 mM piperidine solution in MilliQ water and the formation of the examined fluorophore began following incubation at 65 °C for 20 min. The production of NFK-derived fluorophore (λEX = 400 nm, λEM = 500 nm) was measured using a microplate reader (Synergy H4; BioTek Instruments, Inc., Winooski, VT, USA) after 60 min post-incubation at room temperature. In the preliminary testing compounds were tested at 100 μM with activities determined as residual activities—RA, which were calculated to% of inhibition, presented in Table 1 and Table 2. (% of inhibition = 100% − RA). All determinations were carried out in duplicates.

IDO1 = IDO1 (Homo sapiens, UniProt P14902); assay: hIDO1 inhibitory potency evaluation (fluorescence assay, NFK-derived fluorophore); assay type: biochemical; set-up: gene encoding human IDO1 residues 6-403 His-tagged at the N-terminus; His tag (N); made in house; host or cells: Escherichia coli NiCo21; settings: for IC50: recombinant hIDO1, mean ± SD of at least two independent determinations, read-out: IDO1 IC50
hTDO = biological target: T2, hTDO (Homo sapiens, UniProt P48775); assay: hTDO inhibitory potency evaluation (fluorescence assay); assay type: biochemical; settings: 100 µM compound; n.a. = not active; read-out: TDO % of Inhibition @ 100 µM
T2 construct: purchased Vinci-Biochem
Description: as §1
The activity of the compounds on hTDO was determined according to the previously reported fluorescence protocol for hIDO1 [25] and reported absorbance protocols for hTDO [30] with several modifications. Recombinant hTDO was purchased from Vinci-Biochem (Vinci-Biochem, Vinci, Italy), bovine catalase was purchased from Sigma-Aldrich (Sigma-Aldrich, St. Louis, MO, USA). Prior to the measurement of activity for compounds, the enzyme activity was determined, and optimal assay enzyme concentration was selected. The amounts of reagents needed to perform the assay were optimized. Briefly, the reagents needed were dissolved in 50 mM potassium phosphate buffer (pH 7.0, 0.01%, v/v Tween 20), the reaction was performed in black 384-well microplates. After the addition of 1 μL of 100 mM sodium ascorbate neutralized with equimolar amount of 1 M NaOH, 1 μL of 100 μM methylene blue, 1 μL of 1 mg/mL bovine catalase, 0.5 μL of DMSO (negative control) or solution of a compound, 5 μL of 300 nM hTDO and 1.5 μL of 3.3 mM L-Trp were added and the microplate was incubated for 60 min at 37 °C. The reaction was quenched with the addition of 10 μL of 400 mM piperidine solution in MilliQ water and the formation of the examined fluorophore began following incubation at 65 °C for 20 min. The production of NFK-derived fluorophore (λEX = 400 nm, λEM = 500 nm) was measured using a microplate reader (Synergy H4; BioTek Instruments, Inc., Winooski, VT, USA) after 60 min post-incubation at room temperature. In the preliminary testing compounds were tested at 100 μM with activities determined as residual activities—RA, which were calculated to% of inhibition, presented in Table 1 and Table 2 (% of inhibition = 100% − RA). All determinations were carried out in duplicates.

Hep G2 cell line = assay: Cytotoxicity, MTS cell proliferation assay; assay type: cell-based; settings: Hep G2 cells, 10 μM, 24 h
Description: All active compounds were additionally evaluated on a cellular level, starting with the determination of cytotoxicity on Hep G2 cell line using the MTS assay (Figure 3), where inner salt of [3-(4,5-dimethylthiazol-2-yl)-5-(3-carboxymethoxyphenyl)-2-(4-sulfophenyl)-2H-tetrazolium is converted to formazan product, its quantity is directly proportional to the number of living cells. Since the majority of compounds were only partially soluble in a cell medium at concentrations above 100 μM, their effect on cell viability was measured at 50 μM, 10 μM, and 1 μM. […] Taken together, the results obtained from cellular tests reminded us of the necessity to consider the physicochemical properties of compounds even at the early stages of design.
Cytotoxicity of the compounds was determined on HepG2 cell line using the MTS cell proliferation assay (CellTiter 96 AQueous One Solution Cell Proliferation Assay, Promega, Madison, WI, USA). The cells were seeded in 96-well plates (3 × 10^4 cells/well) and maintained in Dulbecco’s Modified Eagle’s Medium, supplemented with 10% fetal bovine serum (both from Thermo Fisher Scientific, Waltham, MA, USA) and 100 µg/mL gentamicin (Sigma-Aldrich, St. Louis, MO, USA). Following overnight incubation in a humidified chamber at 37 °C and 5% CO2 cells were treated with the compounds of interest at final concentrations of 1 µM, 10 µM, 50 µM, 100 µM, 150 µM, and 200 µM. After 24h incubation under the same conditions, 100 µL of the medium from each well were collected and mixed with 10 µL of MTS solution. Following 3h incubation, the absorbance (λABS = 490 nm) was measured using a microplate reader (Synergy H4; BioTek Instruments, Inc., Winooski, VT, USA). The results are expressed as means of triplicates ± standard deviation of three independent experiments.

Chain of IDO1 (P14902 6-403): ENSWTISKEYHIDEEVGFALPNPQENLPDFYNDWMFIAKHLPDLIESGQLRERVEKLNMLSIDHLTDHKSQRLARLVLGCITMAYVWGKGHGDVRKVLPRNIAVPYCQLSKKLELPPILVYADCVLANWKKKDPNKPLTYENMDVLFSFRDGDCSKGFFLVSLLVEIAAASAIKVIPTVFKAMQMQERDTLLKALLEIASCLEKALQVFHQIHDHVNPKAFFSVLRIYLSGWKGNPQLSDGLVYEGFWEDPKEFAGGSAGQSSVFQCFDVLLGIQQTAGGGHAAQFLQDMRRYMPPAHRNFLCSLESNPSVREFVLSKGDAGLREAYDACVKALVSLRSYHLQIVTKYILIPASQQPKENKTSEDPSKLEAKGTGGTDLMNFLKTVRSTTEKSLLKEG
T2 sequence (P48775 whole entry): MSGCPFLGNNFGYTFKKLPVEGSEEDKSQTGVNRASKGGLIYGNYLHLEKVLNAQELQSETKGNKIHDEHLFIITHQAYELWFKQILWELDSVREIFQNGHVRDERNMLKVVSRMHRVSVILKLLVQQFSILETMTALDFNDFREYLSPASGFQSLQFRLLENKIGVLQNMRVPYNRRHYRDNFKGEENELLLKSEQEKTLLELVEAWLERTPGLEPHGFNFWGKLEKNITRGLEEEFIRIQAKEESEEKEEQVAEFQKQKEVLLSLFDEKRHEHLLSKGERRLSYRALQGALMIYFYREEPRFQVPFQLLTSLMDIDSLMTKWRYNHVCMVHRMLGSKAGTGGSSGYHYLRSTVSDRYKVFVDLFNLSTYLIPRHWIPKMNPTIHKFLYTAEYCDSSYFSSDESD

Row | inhibition at 100 µM (hIDO2) [%] | melting point [°C] | inhibition at 100 µM (IDO1; 100 µM compound, n.a. = not active, read-out: IDO1 % of Inhibition @ 100 µM) [%] | inhibition at 100 µM (hTDO) [%] | IC50 (IDO1) [µM] | hIDO1 inhibition (in words) (IDO1) | Structure (SMILES) | effect on cell viability (Hep G2 cell line)
1 | 39 ± 5 | 232 to 235 | 30 ± 2 | 25 ± 8 | – | – | O=C(Cn1cnc2onc(-c3ccc(F)cc3)c2c1=O)Nc1cccc([N+](=O)[O-])c1 [Compound 24] | –
2 | 28 | 200 to 203 | – | 24 ± 7 | 98 | – | O=C(Cn1cnc2onc(-c3ccc(F)cc3)c2c1=O)Nc1ccc([N+](=O)[O-])cc1 [Compound 25] | –
3 | 11 ± 7 | 200 to 202 | – | – | 22 | low micromolar range | COC(=O)c1ccc(NC(=O)Cn2cnc3onc(-c4ccccc4)c3c2=O)cc1 [Compound 39] | significantly impacted cell viability
4 | – | 226 to 228 | – | 10 ± 2 | 96 | – | O=C(Cn1cnc2onc(-c3ccc(F)c(Br)c3)c2c1=O)Nc1ccc([N+](=O)[O-])cc1 [Compound 49] | significantly impacted cell viability
